According to patent US11786597B2, “Ionic liquids for transdermal drug delivery” (priority 2013, dated 2023):
Several values for one entry are separate records, joined by “and”; a condition that tells them apart may be missing. Equal values may be shown once. Read-outs that look alike come from different tables or passages of the source. Marks after values point to notes of the source that are not given here.

Experiments:
[1] = Viscosity (Viscolab 3000 viscometer); type: physicochemical
Method: Viscosity was measured on 1 mL samples with a Viscolab 3000 viscometer (Cambridge Viscosity, Medford, MA). […] Low-temperature differential scanning calorimetry (DSC) was performed on a DSC882e instrument (Mettler-Toledo Inc., Columbus, Ohio) under N2 atmosphere over two complete scans of a temperature range of −60 to 120° C. with a ramp rate of 10° C. per minute and a sample size of 18-21 mg in an aluminum crucible.

[2] = Determination of lipophilicity (octanol/water distribution by UV absorbance); type: physicochemical; conditions: for percent in octanol: after extraction with water
Method: A 250 mL volume of n-octanol was shaken with 100 mL of ddH2O and left overnight. […]
The absorption of the octanol layer and water layers were measured and compared with the absorbance of the stock solutions. Measurements were repeated three times and the distribution coefficients were reported as the average. The percent of IL in octanol was calculated as the absorbance of the octanol layer after extraction divided by the absorbance of IL in octanol before extraction. The water/octanol distribution coefficient was calculated as the logarithm of the percent of IL in octanol divided by the percent of IL in water.

[3] = Conductivity of neat IL; type: physicochemical
Method: (§1) Determinations of conductivity were made on an ION450 benchtop meter (Radiometer Analytical) with a 2-pole electrode designed for use in viscous liquids (Radiometer Analytical CDC241-9) and calibrated with KCl. Conductivity was measured three times per sample on stirred 3 mL volumes of neat IL at 25° C. Density was measured three times per IL using a 1 mL volumetric flask and an analytical balance.

[4] = Solubility in water (physical characterization); conditions: for solubility in water: 25° C.
[5] = Calculations of molarity and ionic strength; type: physicochemical; conditions: neat IL, Table 5
[6] = Density (volumetric flask and balance); type: physicochemical
Method: as §1

[7] = system: Normal human bronchial epithelial (NHBE) cells; experiment: WST-1 proliferation assay, 24 h exposure to diluted ILs
Method: Normal human bronchial epithelial (NHBE) cells were purchased (Lonza, Walkersville, MD) and cultured using bronchial epithelial cell growth media (BEGM, Clonetics Bullet Kit, Lonza, Walkersville, MD) on 100 mm tissue culture treated Petri dishes (Santa Cruz Biotechnologies, Santa Cruz, CA) coated with 50 μg/mL type I rat tail collagen (BD Biosciences, Bedford, MA). Cells were stored in an incubator with a humidified atmosphere at 37° C. and 5% CO2. Cells were fed two times weekly and passaged via trypsinization. Experimentation was performed in triplicate on cells harvested from passages 3 to 7.
NHBE cells were plated in 96-well tissue culture plates at a concentration of 1.5×10^4 cells/well in a volume of 200 μL and allowed to acclimate overnight. On the day of experimentation, treatment plates were prepared using stock ionic liquid diluted in BEGM and then serially diluted 3-fold for a total of 7 concentrations. The 96-well plates containing cells were then aspirated and the treatments (150 μL/well) were carefully transferred from the prep plate to the cells. Cells were exposed to the ionic liquids for 24 hours. Two hours prior to the end of the exposure time, positive control cell wells were aspirated, and a solution of 1% Triton-100 (150 μL/well) was added.
To assess cellular proliferation, water-soluble tetrazolium (WST-1) reagent (Clontech, Mountain View, CA) was added directly to cells, at a 1:10 dilution of the remaining media volume (7.5 μL of WST-1 reagent was added per 75 μL remaining cell culture media). NHBE cells exposed to media only and 1% Triton in BEGM were included as controls. Ionic liquid controls at the highest concentrations tested were included in wells without cells to rule out ionic liquid/assay reagent interference.

[8] = system: porcine skin; experiment: Skin transport of 3H-Mannitol in Franz diffusion cell; type: in vitro ADME
Method: FIG. 1 is a schematic of the skin transport experiment set-up and analysis. Porcine skin was loaded into the Franz diffusion cell (FDC) with the stratum corneum (SC) facing up. Skin was incubated in contact with 3H-labeled drug dissolved in donor solution for 24 hrs, at 37° C., with stirring. After 24 hrs the donor solution was removed and skin thoroughly washed. The SC was separated from the epidermis by tape stripping. Ten tape strips were applied, each tape corresponding to 1 “layer” of SC. Ten tape strips were assumed to remove the entire SC. Epidermis was separated from dermis using a razor blade. Acceptor solution was collected, and drug transport into various tissue layers was quantified by scintillation counter.
3H-labeled Mannitol and Cefadroxil were obtained from American Radiolabeled Chemicals, Inc. and Moravek, respectively. FDCs were used to assess the transport enhancement of ionic liquids using a previously established protocol. Karande, et al., “Discovery of transdermal penetration enhancers by high-throughput screening”, Nat Biotechnol, 22(2): 192-7 (2004). Briefly, the acceptor chamber was filled with degassed PBS and a small stir bar added. Thawed porcine skin was clamped in place between the acceptor and donor chambers with the SC facing up. Care was taken to ensure no air bubbles resided in the acceptor chamber. Ionic liquids or PBS (control) were spiked with 3H-labeled drug (Mannitol and Cefadroxil) to a final concentration of 10 μCi/ml. 300 μL of donor solution was added to the donor chamber and incubated in contact with the SC for 24 hr, at 37° C., with stirring.
After 24 hr, the donor solution was removed, and the skin was thoroughly washed and dried.
SC was separated from epidermis by tape stripping. Ten tape strips were performed in an identical fashion, with each tape corresponding to 1 SC “layer”. Ten strips were assumed to remove the majority of the SC. Epidermis was separated from dermis with a razor blade, and the acceptor solution was collected from the acceptor chamber. Samples from each tissue layer and acceptor solution were dissolved in Soluble (Perkin Elmer, Waltham, MA) overnight and the concentration of radiolabeled solute was measured using a scintillation counter (Packard Tri-Carb 2100 TR, Meriden, CT).

[9] = system: S. enterica (Salmonella) biofilm; conditions: neat IL
[10] = system: P. aeruginosa (Pseudomonas) biofilm; conditions: neat IL
[11] = read-out: IC50 at 24 h, WST, NHBE cells, 24 h, lower limits where solubility precluded IC50

Row | Compound | viscosity ([1]; 25° C.) | viscosity ([1]; Table 5) | percent in octanol ([2]; Table 3) | conductivity ([3]; 25° C.) | conductivity ([3]; Table 5) | ionic strength [5] | molarity [5] | density ([6]; 25° C.) | density ([6]; Table 5) | further results
1 | C[N+](C)(C)CCO.O=S(=O)([N-]S(=O)(=O)C(F)(F)F)C(F)(F)F [LANL-12, choline-NTf2] | 125 cP | 125 cP | 67 +/− 9% | 1.46 mS/cm | 1.460 mS/cm | 4.40 M | 4.40 M | 1.5 g/mL and 1.53 g/mL | 1.54 g/mL | log Po/w ([2]; octanol/water, Table 3): 0.31; solubility in water [4]: 1700 mM
2 | CCCCCC(=O)[O-].CCCCCCCCCCCCCC[P+](CCCCCC)(CCCCCC)CCCCCC [LANL-20, [PC14H29(C6H13)3][hexanoate]] | 154 cP | 154 cP | 65 +/− 14% | 0.488 mS/cm | 0.488 mS/cm | 1.63 M | 1.63 M | 0.912 g/mL | 0.912 g/mL | log Po/w ([2]; octanol/water, Table 3): 0.26; solubility in water [4]: trace
3 | choline hexanoate [LANL-13] | 181 cP | 180.9 cP | 51 +/− 2% | 0.816 mS/cm | 0.816 mS/cm | 3.02 M | 3.02 M | 1.01 g/mL | 1.01 g/mL | toxicity to human primary cells [7]: low toxicity; drug permeation into the SC ([8]; 3H-Mannitol, 24 hr, 37° C.): inhibited drug permeation into the SC; anti-biofilm efficacy [9]: effective; conductivity ([3]; text b172): 0.816 mS/cm; anti-biofilm efficacy [10]: effective
4 | CCCCCCCC/C=C\CCCCCCCC(=O)[O-].CCCCCCCCCCCCCC[P+](CCCCCC)(CCCCCC)CCCCCC [LANL-19, [PC14H29(C6H13)3][oleate]] | 299 cP | 300 cP | 93 +/− 2% | 0.016 mS/cm | 0.0162 mS/cm | 1.24 M | 1.15 M | 0.882 g/mL | 0.882 g/mL | loss/partitioning of solute to the acceptor solution ([8]; 3H-Mannitol): no additional loss of solute to the acceptor solution; transport enhancement into/through all layers of the skin ([8]; 3H-Mannitol, relative to PBS control): 5-10 fold; skin transport properties ([8]; materials in lower right portion of Walden plot): best skin transport properties; log Po/w [2]: 1.14
5 | CCCCCCn1cc[n+](C)c1.[Cl-] [LANL-7, 1-Hexyl-3-Methylimidazolium Chloride] | 680 cP | 679.5 cP | 52 +/− 9% | 0.340 mS/cm | 0.340 mS/cm | 4.96 M | 4.96 M | 1.005 g/mL | 1.01 g/mL | IC50 ([7]; Homo sapiens, NHBE): 10 mM; IC50 ([7]; Homo sapiens, NHBE, 24 h, read-out: IC50 at 24 h): 10 mM; toxicity to human primary cells ([7]; solubilized in culture medium): low toxicity; anti-biofilm efficacy [9]: effective; logP ([2]; n-octanol/water, octanol/water, Table 3): 0.04; solubility ([4]; water, 25 °C): 700 mM; anti-biofilm efficacy [10]: effective
6 | CCCC[N+]1(C)CCCC1.O=S(=O)([N-]S(=O)(=O)C(F)(F)F)C(F)(F)F [LANL-1, 1-Butyl-1-methylpyrrolidinium (BMP)—bistriflimide (NTf2)] | 72.7 cP | 72.72 cP | 20% +/− 7% | 1.99 mS/cm | 1.99 mS/cm | 3.28 M | 3.28 M | 1.39 g/mL | 1.39 g/mL | toxicity to human primary cells [7]: low toxicity; IC50 [7, 11]: > 2 mM; partitioning into octanol [2]: partitioned poorly into octanol; percentage in the water phase ([2]; starting concentration of 0.2 M in octanol): 51%; percentage not incorporated in octanol or water ([2]; starting concentration of 0.2 M in octanol, third phase): 29%
7 | O=S(=O)(NS(=O)(=O)C(F)(F)F)C(F)(F)F [LANL-12, choline-NTf2] |  |  |  |  |  |  |  |  |  | IC50 [7, 11]: 1.7 mM
8 | NC(N)=O [LANL-6, urea-choline] |  |  |  |  |  |  |  |  |  | IC50 ([7]; NHBE cells, text b165): > 10 mM; IC50 [7, 11]: > 10 mM
9 | CCCCCCCC/C=C\CCCCCCCC(=O)O.CCCCCCCC/C=C\CCCCCCCC(=O)[O-].C[N+](C)(C)CCO | 880 cP | 162.3^b cP | 95 +/− 3% | 0.087 mS/cm | 0.0871^b mS/cm | 1.47 M | 1.47 M | 0.98 g/mL | 0.98 g/mL | viscosity ([1]; text b171): 162 cP; toxicity to human primary cells [7]: very toxic; IC50 ([7]; NHBE cells, text b165): 0.034 mM; partitioning into octanol [2]: partitioned well into octanol; percent moving into the octanol layer ([2]; after 1 min of agitation): 95%; density ([6]; text b173): 0.98 g/mL
10 | CC(C)=CCC/C(C)=C/C(=O)[O-].CCCCCCCCCCCCCC[P+](CCCCCC)(CCCCCC)CCCCCC [LANL-22, [PC14H29(C6H13)3][geranate]] | 122 cP | 122.3 cP | 88 +/− 6% | 0.156 mS/cm | 0.156 mS/cm | 1.43 M | 1.43 M | 0.931 g/mL | 0.931 g/mL | log Po/w [2]: 0.86
11 | choline malonate [LANL-5] | 920 cP | 920.1 cP |  | 0.429 mS/cm | 0.429 mS/cm | 5.20 M | 5.20 M | 1.266 g/mL | 1.27 g/mL | anti-biofilm efficacy [9]: effective; density ([6]; text b173): 1.27 g/mL; anti-biofilm efficacy [10]: effective
